Data reported in patent publication US7875634B2, “Cyano anthranilamide insecticides” (E. I. du Pont de Nemours and Company, priority 2003, dated 2011).

How the values were obtained:
Assay type in all cases: in vivo
[1] = tested on: potato leafhopper (Empoasca fabae); assay: Test H: foliar movement of compound through the plant, potato leafhopper mortality (bean); details: applied at 1000 ppm, 20 microliters by pipet to two leaves of bean plant; infested after 2 days, held 8 additional days; insects fed on untreated plant tissues
From the text: (§1) For evaluating movement of compounds in plants and control of green peach aphid (Myzus persicae) and potato leafhopper (Empoasca fabae) after foliar movement of compound through the plant, the test unit consisted of a small open container with a 12-15-day-old radish plant (for green peach aphid test) or 5-6 day old Longio bean plant (for potato leafhopper test).
(§2) Test compounds were formulated using a solution containing 10% acetone, 90% water and 600 ppm X-77® Spreader Lo-Foam Formula non-ionic surfactant containing alkylarylpolyoxyethylene, free fatty acids, glycols and isopropanol (Loveland Industries, Inc.). The formulated compounds were applied in 20 microliters by pipet to two larger photosynthetically active leaves. All experimental compounds in this screen were applied at 1000 ppm, and the tests were replicated three times. After applying the formulated test compounds, the soil of each test unit was covered with a layer of sand and each test unit was allowed to dry for 1 hr and then a black, screened cap was placed on top. The test units were held in a growth chamber at about 20° C. and 50-70% relative humidity.
(§3) After 2 days, the treated leaves were covered on all sides with a fine plastic mesh, but with the leaf petiole intact and still attached to the plant to allow normal vascular movement and photosynthesis. The plants were then infested with 20-30 aphids (radish) or 20 leafhoppers (bean) and held in the growth chamber for 8 additional days. Each test unit was then visually assessed for mortality of the insects, which had contacted and fed on the untreated plant tissues.

[2] = tested on: corn planthopper (Peregrinus maidis); assay: Test F: control of corn planthopper through contact and/or systemic means, spray on corn; details: 144 h
Method: For evaluating control of corn planthopper (Peregrinus maidis) through contact and/or systemic means, the test unit consisted of a small open container with a 3-4 day old corn (maize) plant (spike) inside. White sand was added to the top of the soil prior to application. Test compounds were formulated and sprayed at 250 ppm and replicated three times as described for Test C. After spraying, the test units were allowed to dry for 1 hour before they were post-infested with 10-20 corn planthoppers (18- to 20-day old nymphs) by sprinkling them onto the sand with a salt shaker. A black, screened cap was placed on the top of the cylinder. The test units were held for 6 days in a growth chamber at 19-21° C. and 50-70% relative humidity. Each test unit was then visually assessed for insect mortality.

[3] = tested on: green peach aphid (Myzus persicae); assay: Test H: foliar movement of compound through the plant, green peach aphid mortality (radish); details: applied at 1000 ppm, 20 microliters by pipet to two leaves of radish plant; infested after 2 days, held 8 additional days; insects fed on untreated plant tissues
From the text: as §1, §2, §3

[4] = tested on: green peach aphid (Myzus persicae); assay: Test 1 (I): xylem movement from soil application, green peach aphid mortality (radish); details: for % GPA M (green peach aphid mortality): 1000 ppm, 1 mL to soil at base of radish plant, infested after 2 days, held 5 additional days
From the text: (§4) For evaluating movement of compounds in plants and control of green peach aphid (Myzus persicae) and potato leafhopper (Empoasca fabae) after xylem movement of compound from soil application up through roots into foliage, the test unit consisted of a small open container with a 12-15-day-old radish plant (for green peach aphid test) or 5-6-day-old Longio bean plant (for potato leafhopper test).
as §2, with “in 1 mL of solution” for “in 20 microliters”, “to the soil at the base of the plant.” for “to two larger photosynthetically active leaves.”, “compounds, each test unit was allowed to dry for 1 h. The” for “compounds, the”, “sand” for “sand and each test unit was allowed to dry for 1 hr”
(§5) After 2 days, the plants were then infested with 20-30 aphids (radish) or 20 leafhoppers (bean) and held in the growth chamber for 5 additional days. Each test unit was then visually assessed for mortality of the insects, which had contacted and fed on the untreated plant foliage.

[5] = tested on: cotton melon aphid (Aphis gossypii); assay: Test E: control of cotton melon aphid through contact and/or systemic means, spray on cotton; details: 144 h
From the text: For evaluating control of cotton melon aphid (Aphis gossypii) through contact and/or systemic means, the test unit consisted of a small open container with a 6-7-day-old cotton plant inside. This was pre-infested with 30-40 insects on a piece of leaf according to the cut-leaf method described for Test C, and the soil of the test unit was covered with a layer of sand.
Test compounds were formulated and sprayed at 250 ppm as described for Test D. The applications were replicated three times. After spraying, the test units were maintained in a growth chamber and then visually rated as described for Test D.

[6] = tested on: potato leafhopper (Empoasca fabae); assay: Test 1 (I): xylem movement from soil application, potato leafhopper mortality (bean); details: for % PLH M (potato leafhopper mortality): 1000 ppm, 1 mL to soil at base of bean plant, infested after 2 days, held 5 additional days
From the text: as §4
as §2, with “in 1 mL of solution” for “in 20 microliters”, “to the soil at the base of the plant.” for “to two larger photosynthetically active leaves.”, “compounds, each test unit was allowed to dry for 1 h. The” for “compounds, the”, “sand” for “sand and each test unit was allowed to dry for 1 hr”
as §5

[7] = tested on: potato leafhopper (Empoasca fabae Harris); assay: Test D: control of potato leafhopper through contact and/or systemic means, spray on bean plant; details: 144 h
Method: For evaluating control of potato leafhopper (Empoasca fabae Harris) through contact and/or systemic means, the test unit consisted of a small open container with a 5-6 day old Longio bean plant (primary leaves emerged) inside. White sand was added to the top of the soil and one of the primary leaves was excised prior to application. Test compounds were formulated and sprayed at 250 ppm and replicated three times as described for Test C. After spraying, the test units were allowed to dry for 1 hour before they were post-infested with 5 potato leafhoppers (18 to 21 day old adults). A black, screened cap was placed on the top of the cylinder. The test units were held for 6 days in a growth chamber at 19-21° C. and 50-70% relative humidity. Each test unit was then visually assessed for insect mortality.

[8] = tested on: green peach aphid (Myzus persicae); assay: Test C: control of green peach aphid through contact and/or systemic means, spray on radish; details: 144 h
From the text: For evaluating control of green peach aphid (Myzus persicae) through contact and/or systemic means, the test unit consisted of a small open container with a 12-15-day-old radish plant inside. This was pre-infested by placing on a leaf of the test plant 30-40 aphids on a piece of leaf excised from a culture plant (cut-leaf method). The larvae moved onto the test plant as the leaf piece desiccated. After pre-infestation, the soil of the test unit was covered with a layer of sand.
Test compounds were formulated using a solution containing 10% acetone, 90% water and 300 ppm X-77® Spreader Lo-Foam Formula non-ionic surfactant containing alkylarylpolyoxyethylene, free fatty acids, glycols and isopropanol (Loveland Industries, Inc.). The formulated compounds were applied in 1 mL of liquid through a SUJ2 atomizer nozzle with ⅛ JJ custom body (Spraying Systems Co.) positioned 1.27 cm (0.5 inches) above the top of each test unit. All experimental compounds in this screen were sprayed at 250 ppm, replicated three times. After spraying of the formulated test compound, each test unit was allowed to dry for 1 hour and then a black, screened cap was placed on top. The test units were held for 6 days in a growth chamber at 19-21° C. and 50-70% relative humidity. Each test unit was then visually assessed for insect mortality.

For Cc1cc(C#N)cc(C(N)=O)c1NC(=O)c1cc(C(F)(F)F)nn1-c1ncccc1Cl [Compound 1], the “% PLH M (potato leafhopper mortality)” value [1] was 58%, the mortality at 250 ppm [2] was ≥ 80% and the “% GPA M (green peach aphid mortality)” value [3] was 87%. The mortality at 1000 ppm ([4]; Myzus persicae, soil, read-out: % GPA M (green peach aphid mortality)) was 64%, the mortality at 250 ppm [5] was ≥ 80% and the mortality at 1000 ppm ([6]; Empoasca fabae, soil, read-out: % PLH M (potato leafhopper mortality)) was 100%. For the same compound, the mortality at 250 ppm [7] was ≥ 80% and the mortality at 250 ppm [8] was ≥ 80%.

With CNC(=O)c1cc(C#N)cc(C)c1NC(=O)c1cc(C(F)(F)F)nn1-c1ncccc1Cl [Compound 2] the “% GPA M (green peach aphid mortality)” value [4] was 64% and the “% PLH M (potato leafhopper mortality)” value [6] was 56%.

CNC(=O)c1cc(C#N)cc(C)c1NC(=O)c1cc(Cl)nn1-c1ncccc1Cl [Compound 3] was tested, and the “% PLH M (potato leafhopper mortality)” value [1] was 96% and the “% GPA M (green peach aphid mortality)” value [3] was 81%.

For Cc1cc(C#N)cc(C(N)=O)c1NC(=O)c1cc(Cl)nn1-c1ncccc1Cl [Compound 4], the “% PLH M (potato leafhopper mortality)” value [1] was 93% and the “% GPA M (green peach aphid mortality)” value [3] was 78%.

CNC(=O)c1cc(C#N)cc(C)c1NC(=O)c1cc(Br)nn1-c1ncccc1Cl [Compound 5] was tested, and the “% PLH M (potato leafhopper mortality)” value [1] was 96%, the “% GPA M (green peach aphid mortality)” value [3] was 94% and the “% GPA M (green peach aphid mortality)” value [4] was 40%. The “% PLH M (potato leafhopper mortality)” value [6] was 95%.

In the case of Cc1cc(C#N)cc(C(N)=O)c1NC(=O)c1cc(Br)nn1-c1ncccc1Cl [Compound 6], the “% PLH M (potato leafhopper mortality)” value [1] is reported as 77%, the “% GPA M (green peach aphid mortality)” value [3] is reported as 100% and the “% GPA M (green peach aphid mortality)” value [4] is reported as 59%. The “% PLH M (potato leafhopper mortality)” value [6] was 100%.

For Cc1cc(C#N)cc(C(=O)NCC#N)c1NC(=O)c1cc(Cl)nn1-c1ncccc1Cl [Compound 26], the “% PLH M (potato leafhopper mortality)” value [1] was 73% and the “% GPA M (green peach aphid mortality)” value [3] was 67%.

For Cc1cc(C#N)cc(C(=O)NCC#N)c1NC(=O)c1cc(Br)nn1-c1ncccc1Cl [Compound 27], the “% PLH M (potato leafhopper mortality)” value [1] was 13% and the “% GPA M (green peach aphid mortality)” value [3] was 57%.
